Assay results from publication PMC12920379 (European Journal of Nuclear Medicine and Molecular Imaging, 2025).

Key:
[1] = Morphological assessment / tolerability of treated PC3-mice; format: in vivo
Procedure: Selected mouse organs (kidney, pancreas and tumor) were dissected from the sacrificed animals and immediately frozen using liquid nitrogen. Frozen tissue samples were sectioned at 7 μm thickness using a cryostat maintained at −20 °C to −25 °C and mounted onto microscope glass slides, followed by staining with hematoxylin and eosin for microscopic examination using standard protocols (supplementary material).
Frozen tissue samples (kidney, pancreas and tumor) were sectioned at 7 µm thickness using a cryostat maintained at −20°C to −25°C and mounted onto microscope glass slides. Sections were air-dried at room temperature for 15 minutes and subsequently fixed in 4% paraformaldehyde for 10 minutes. After rinsing in phosphate-buffered saline, slides were stained with hematoxylin for 5 minutes, rinsed in running tap water and differentiated in 1% acid alcohol followed by bluing in ammonia water. Sections were then counterstained with eosin for 1 minute and briefly washed in 70% ethanol to remove excess stain. Slides were dehydrated through graded ethanol (70%, 95%, 100%) and mounted with a permanent mounting medium. Stained sections were examined using a light microscope.

PC3 tumors = assay: In vivo combination therapy with everolimus in PC3-mice
Procedure: (b) Everolimus monotherapy: Mice received everolimus (5 mg/kg/day) on days 0, 2, and 4 of the therapy.

SMILES: CO[C@H]1C[C@@H]2CC[C@@H](C)[C@@](O)(O2)C(=O)C(=O)N2CCCC[C@H]2C(=O)O[C@H]([C@H](C)C[C@@H]2CC[C@@H](OCCO)[C@H](OC)C2)CC(=O)[C@H](C)/C=C(\C)[C@@H](O)[C@@H](OC)C(=O)[C@H](C)C[C@H](C)/C=C/C=C/C=C/1C [everolimus]
- Microscopic tissue examination, kidney ([1]; 5mg/kg (x3)): Vacuolar degeneration of some tubular epithelial cells. No other obvious lesions
- Microscopic tissue examination, pancreas ([1]; 5mg/kg (x3)): No obvious lesions.
- Tolerability (physical condition, weight fluctuations) ([1]; PC3-mice, three doses of everolimus): no observable side effects
- Time tumor volume kept under 500 mm^3 (PC3 tumors; everolimus alone 5 mg/kg/day on days 0, 2, 4): 20 days
- Median survival (PC3 tumors; everolimus alone 5 mg/kg/day on days 0, 2, 4, p > 0.5): ~ 25 days
